Measurements from ChEMBL document CHEMBL3272056, “Synthesis of N-hydroxythiourea” (J Med Chem, 1976).
Active and inactive are the calls of the source. The rule behind the calls is not given here.

Test system: L1210
Test: Antitumor activity against mouse L1210 cells at 400 mg/kg, ip
Assay type: functional, organism-based
Parameters: dose 400 mg/kg

For `NC(=S)NO`, the Activity was “inactive”.
